The values that follow come from ChEMBL document CHEMBL1150909, “Magnone A and B, novel anti-PAF tetrahydrofuran lignans from the flower buds of Magnolia fargesii” (J Nat Prod, 1998).

Usually pIC50 stands for the negative decadic logarithm of the IC50, by convention in mol/L. Low values mean a large IC50, high ones a small IC50.

The structures appear in SMILES notation. pIC50: −log10 of the molar value.

The species entered for assay [1] is Oryctolagus cuniculus. Nature of the assay: Displacement of [3H]PAF from rabbit PAF receptor at 100 uM by liquid scintillation counting.
Assay [2] can be described thus: Displacement of [3H]PAF from rabbit PAF receptor by liquid scintillation counting. Further details: species or system Oryctolagus cuniculus. For orientation: Loss of bound radioactivity is the signal in a displacement assay; it reports binding, not function.
The species entered for assay [3] is Oryctolagus cuniculus. The experiment in a line: Displacement of [3H]PAF from rabbit PAF receptor at 50 uM by liquid scintillation counting.
The species named for assay [4] is Oryctolagus cuniculus. Nature of the assay: Displacement of [3H]PAF from rabbit PAF receptor at 12.5 uM by liquid scintillation counting.
Assay [5] is filed under the species Oryctolagus cuniculus. The experiment in a line: Displacement of [3H]PAF from rabbit PAF receptor at 25 uM by liquid scintillation counting.

As to `COc1ccc(C(=O)[C@H]2CO[C@H](c3cc(OC)c(OC)c(OC)c3)[C@H]2CO)cc1OC` [MAGNONE B], the Activity in assay [1] came out at 81.7%; in assay [3], 64.3%; in assay [4], 37.1%; in assay [5], 42.9%. Moreover, the negative logarithm of the IC50 (pIC50) in assay [2] was 4.57.

As for `C[C@@H]1C(=O)O[C@H]2[C@H](O)[C@@]34[C@H]5C[C@@H](C(C)(C)C)[C@]36[C@@H](OC(=O)[C@@H]6O)O[C@@]4(C(=O)O5)[C@@]12O` [GINKOLIDE B], in assay [2], the pIC50 was 4.72.

On to `COc1ccc(C(=O)[C@H]2CO[C@H](c3ccc(OC)c(OC)c3)[C@H]2CO)cc1OC` [MAGNONE A], for which the Activity in assay [1] was 75.2%; in assay [3], 56.7%; in assay [4] it was 19.4%; in assay [5], 41.6%. Besides, the negative logarithm of the IC50 (pIC50) in assay [2] was 4.42.
